Where “and” joins values, the source holds several entries; their conditions need not be identical. Equal values may be shown once. Read-outs that look alike come from different tables or passages of the source.
Biological target: T1, CPV-2 NS1 endonuclease (Canine parvovirus type 2, UniProt P12929)
T1 construct: hexahistidine (N); hexahistidine (C); made in house; host or cells: E. coli BL21 (De3) pLysS
Experiment: FRET nicking assay, inhibition of recombinant CPV-2 NS1 endonuclease
Type: biochemical, Canine parvovirus type 2 (CPV-2)
Settings: for Inhibition (%) at 50 μM: 50 μM inhibitor; for IC50: single compounds, 1.25 μg endonuclease, pH 7.0, 300 mM NaCl, 37°C, curcumin by 4PL, others by linear regression
Text: The fluorescence resonance energy transfer (FRET) substrate, which was composed of an oligonucleotide 5¢-TAA CCT TAC CAT AAG TA↓T CAA TCT GTC TTT-3¢ labeled with carboxyfluorescein (FAM) at the 5¢-terminus and black hole quencher 1 (BHQ1) at the 3¢-terminus as the energy transfer pair, was designed and synthesized by Bioneer Corp. (Korea) (Fig. S1).
cDNA of the CPV-2 NS1 endonuclease gene was synthesized after codon optimization (Genscript, USA) based on the N-terminal amino acid sequence (amino acids 1–277 of the DNA-binding region) of CPV-2 NS1 endonuclease (GenBank Accession No. AAV36764.1) (Fig. S2). The CPV-2 NS1 endonuclease gene was imbedded into the pET-28a (+) vector (Novagen, Germany) with hexahistidine tags at the N- and C-termini. The plasmids were transformed into E. coli BL21 (De3) pLysS (Invitrogen, USA) for expression. The transformed cells were cultured in 1 L of LB containing 30 μg/ml kanamycin at 37°C until the OD600 reached 0.6. Next, protein expression was induced with 1 mM isopropyl β-D-1-thiogalactopyranoside (IPTG) at 24°C for 20 h. Cells were harvested by centrifugation at 12,000 ×g for 25 min and 4°C. The pellet was resuspended in 50 ml 50 mM Tris-HCl buffer (pH 7.0) containing 300 mM NaCl and disrupted by sonication. After centrifugation at 12,000 ×g for 30 min and 4°C, the supernatant was applied to a Ni-NTA agarose column (Qiagen, Germany) and washed with 50 mM Tris-HCl buffer (pH 8.0) containing 300 mM NaCl and 20 mM imidazole. CPV-2 NS1 endonuclease was eluted with 50 mM Tris-HCl buffer (pH 8.0) containing 300 mM NaCl, and 250 mM imidazole, and dialyzed against 50 mM Tris-HCl (pH 7.0) containing 300 mM NaCl at 4°C overnight. The purified protein was stored at −20°C until required.
CPV-2 NS1 endonuclease activity was measured using an FRET substrate as described above. The reaction mixture was composed of 1.25 μg endonuclease and 0.6 μM FRET in 50 mM Tris-HCl buffer (pH 7.0). The reaction was run at 37°C with continuous monitoring of fluorescence for 10 min. Relative fluorescence units (RFUs) were measured using a SpectraMax M3 fluorescence plate reader (Molecular Devices, USA) with an excitation wavelength of 495 nm and an emission wavelength of 517 nm.
Thirty-one compounds, extracted sesame cake, turmeric, and yerba mate were tested for inhibitory effects against CPV-2 NS1 endonuclease. For screening, thirty-one compounds, turmeric, and yerba mate were dissolved in dimethyl sulfoxide (DMSO) to 5 mM or 10 mg/ml as stock solutions. Sesame cake extract (10 mg/ml) was solubilized in water. The reaction was initiated by adding 0.6 μM FRET substrate to a mixture of 50 μM compound and 1.25 μg endonuclease in 50 mM Tris-HCl buffer (pH 7.0) containing 300 mM NaCl. The reaction was run at 37°C for 3 min using a SpectraMax M3 fluorescence plate reader with an excitation wavelength of 495 nm and emission wavelength of 517 nm. Inhibitory activity was calculated using the following equation:
Inhibition activity (%) 100-[(S-S0)÷(C-C0)]×100
where C is RFU of the control (enzyme, buffer, and substrate) after a 3 min reaction, C0 is the RFU of the control at 0 min, S is the RFU of the sample (enzyme, buffer, inhibitor, and substrate) after 3 min, and S0 is the RFU of the sample at 0 min.
We determined the 50% inhibitory concentrations (IC50) of the six natural compounds, extracted turmeric, yerba mate, and sesame cake relative to the inhibitor-free control. The IC50 values of curcumin, and extracted sesame cake were calculated using a four-parameter logistic curve (4PL) using Prism v. 8 software (GraphPad Software Inc., USA). […] 8 software.

[1] = 0.6 μM FRET substrate, 1.25 μg enzyme, 50 mM Tris/HCl pH 7.0, 37°C, 3 min
[2] = pH 7, 50 μM inhibitor, 0.6 μM FRET substrate, 1.25 μg enzyme, 50 mM Tris/HCl pH 7.0, 37°C, 3 min, read-out: Inhibition (%) at 50 μM
[3] = pH 7, read-out: Inhibition (%) at 50 μM, 50 μM inhibitor, 0.6 μM FRET substrate, 1.25 μg enzyme, 50 mM Tris/HCl pH 7.0, 37°C, 3 min

T1 sequence (P12929 1-277): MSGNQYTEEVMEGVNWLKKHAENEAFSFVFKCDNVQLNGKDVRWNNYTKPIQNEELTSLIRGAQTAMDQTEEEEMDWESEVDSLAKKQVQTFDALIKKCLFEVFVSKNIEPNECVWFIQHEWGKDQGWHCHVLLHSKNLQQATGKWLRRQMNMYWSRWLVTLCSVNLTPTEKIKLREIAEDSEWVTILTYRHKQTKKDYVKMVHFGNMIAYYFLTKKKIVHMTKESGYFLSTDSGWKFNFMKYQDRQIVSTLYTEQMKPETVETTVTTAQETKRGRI

Row | Structure (SMILES) | Inhibition (%) at 50 μM [1] | inhibition at 50 µM [2] | other results
1 | c1cc2c(cc1[C@H]1OC[C@H]3[C@@H]1CO[C@@H]3c1ccc3c(c1)OCO3)OCO2 [(+)-Sesamin] | did not inhibit | 0% | 
2 | O=c1c(-c2ccc(O)cc2)coc2cc(O)ccc12 [Daidzein] | 22 ± 12% |  | Inhibition (%) at 50 μM (0.6 μM FRET substrate, 1.25 μg enzyme, 50 mM Tris/HCl pH 7.0, 37°C, 3 min, listed as daidzein): < 50%
3 | O=c1c(O)c(-c2ccc(O)c(O)c2)oc2cc(O)ccc12 [Fisetin] | did not inhibit | 0% | 
4 | O=C1O[C@H]([C@@H](O)CO)C(O)=C1O [L-Ascorbic acid] | did not inhibit | 0% | 
5 | O=C(/C=C/C=C/c1ccc2c(c1)OCO2)N1CCCCC1 [Piperine] | did not inhibit | 0% | 
6 | O=C(/C=C/c1ccc(O)c(O)c1)O[C@@H]1C[C@](O)(C(=O)O)C[C@@H](O)[C@H]1O [Chlorogenic acid] | 29 ± 4% |  | Inhibition (%) at 50 μM (0.6 μM FRET substrate, 1.25 μg enzyme, 50 mM Tris/HCl pH 7.0, 37°C, 3 min, listed as chlorogenic acid): < 50% and > 29%
7 | C[C@@H]1O[C@@H](OC[C@H]2O[C@@H](Oc3c(-c4ccc(O)c(O)c4)oc4cc(O)cc(O)c4c3=O)[C@H](O)[C@@H](O)[C@@H]2O)[C@H](O)[C@H](O)[C@H]1O [Rutin] | did not inhibit | 0% | 
8 | O=c1c(O)c(-c2cc(O)c(O)c(O)c2)oc2cc(O)cc(O)c12 [Myricetin] | did not inhibit | 0% | 
9 | CC1(C)CC[C@]2(C(=O)O)CC[C@]3(C)C(=CC[C@@H]4[C@@]5(C)CC[C@H](O)C(C)(C)[C@@H]5CC[C@]43C)[C@@H]2C1 [Oleanolic acid] | 51 ± 7% |  | Inhibition (%) at 50 μM (0.6 μM FRET substrate, 1.25 μg enzyme, 50 mM Tris/HCl pH 7.0, 37°C, 3 min, listed as oleanolic acid): > 29%
10 | O=c1c(-c2ccc(O)cc2)coc2cc(O)cc(O)c12 [Genistein] | 45 ± 14% |  | inhibition at 50 µM [3]: < 50%
11 | CCCCC/C=C\C/C=C\CCCCCCCC(=O)O [Linoleic acid] | 100% |  | inhibition at 50 µM [3]: > 95%; IC50 (0.6 μM FRET substrate, 3 min): 1140 ± 40 nM
12 | O=c1c(O)c(-c2ccc(O)c(O)c2)oc2cc(O)cc(O)c12 [Quercetin] | 51 ± 3% |  | Inhibition (%) at 50 μM (0.6 μM FRET substrate, 1.25 μg enzyme, 50 mM Tris/HCl pH 7.0, 37°C, 3 min, listed as quercetin): > 29%
13 | c1cc2c(cc1O[C@H]1OC[C@H]3[C@@H]1CO[C@@H]3c1ccc3c(c1)OCO3)OCO2 [Sesamolin] | did not inhibit | 0% | 
14 | O=C(O)c1cc(O)c(O)c(O)c1 [Gallic acid] | 2 ± 2% |  | Inhibition (%) at 50 μM (0.6 μM FRET substrate, 1.25 μg enzyme, 50 mM Tris/HCl pH 7.0, 37°C, 3 min, listed as gallic acid): < 50%
15 | COc1cc(/C=C/C(=O)CC(=O)/C=C/c2ccc(O)cc2)ccc1O [Demethoxycurcumin] | 100% |  | inhibition at 50 µM [3]: > 95%; IC50 (0.6 μM FRET substrate, 3 min): 630 ± 10 nM
16 | O=C(O[C@@H]1Cc2c(O)cc(O)cc2O[C@@H]1c1cc(O)c(O)c(O)c1)c1cc(O)c(O)c(O)c1 [EGCG, epigallocatechin gallate] | 49 ± 6% |  | Inhibition (%) at 50 μM (0.6 μM FRET substrate, 1.25 μg enzyme, 50 mM Tris/HCl pH 7.0, 37°C, 3 min, listed as epigallocatechin gallate): < 50%
17 | O=c1c(O[C@@H]2O[C@H](CO)[C@@H](O)[C@H](O)[C@H]2O)c(-c2ccc(O)cc2)oc2cc(O)cc(O)c12 [Astragalin] | did not inhibit | 0% | 
18 | O=C(O)/C=C/c1ccc(O)c(O)c1 [Caffeic acid] | 42 ± 8% |  | Inhibition (%) at 50 μM (0.6 μM FRET substrate, 1.25 μg enzyme, 50 mM Tris/HCl pH 7.0, 37°C, 3 min, listed as caffeic acid): < 50% and > 29%
19 | Oc1ccc2c(c1)OCO2 [Sesamol] | 9 ± 5% |  | Inhibition (%) at 50 μM (0.6 μM FRET substrate, 1.25 μg enzyme, 50 mM Tris/HCl pH 7.0, 37°C, 3 min, listed as sesamol): < 50%
20 | C[C@H]1[C@H](C)CC[C@]2(C(=O)O)CC[C@]3(C)C(=CC[C@@H]4[C@@]5(C)CC[C@H](O)C(C)(C)[C@@H]5CC[C@]43C)[C@H]12 [Ursolic acid] | 29 ± 5% |  | Inhibition (%) at 50 μM (0.6 μM FRET substrate, 1.25 μg enzyme, 50 mM Tris/HCl pH 7.0, 37°C, 3 min, listed as ursolic acid): < 50% and > 29%
21 | Cn1c(=O)c2c(ncn2C)n(C)c1=O [Caffeine] | 7 ± 7% |  | Inhibition (%) at 50 μM (0.6 μM FRET substrate, 1.25 μg enzyme, 50 mM Tris/HCl pH 7.0, 37°C, 3 min, listed as caffeine): < 50%
22 | Cc1c(C)c2c(c(C)c1O)CC[C@@](C)(CCC[C@H](C)CCC[C@H](C)CCCC(C)C)O2 [α-Tocopherol (Vitamin E), α-Tocopherol] | 98 ± 3% |  | inhibition at 50 µM [3]: > 95%; IC50 (0.6 μM FRET substrate, 3 min): 8030 ± 800 nM
23 | COc1cc(/C=C/C(=O)O)ccc1O [Ferulic acid] | 37 ± 5% |  | Inhibition (%) at 50 μM (0.6 μM FRET substrate, 1.25 μg enzyme, 50 mM Tris/HCl pH 7.0, 37°C, 3 min, listed as ferulic acid): < 50%
24 | O=c1c2cc(O)c(O)cc2oc2cc(O)c([C@@H]3O[C@H](CO)[C@@H](O)[C@H](O)[C@H]3O)c(O)c12 [Mangiferin] | did not inhibit | 0% | 
25 | O=C(/C=C/c1ccc(O)cc1)CC(=O)/C=C/c1ccc(O)cc1 [Bisdemethoxycurcumin] | 100% |  | inhibition at 50 µM [3]: > 95%; IC50 (0.6 μM FRET substrate, 3 min): 450 ± 50 nM
26 | O=C1C[C@@H](c2ccc(O)cc2)Oc2cc(O)cc(O)c21 [Naringenin] | did not inhibit | 0% | 
27 | Oc1ccc(/C=C/c2cc(O)cc(O)c2)cc1 [Resveratrol] | did not inhibit | 0% | 
28 | C[N+](C)(C)C[C@H](O)CC(=O)[O-] [L-carnitine] | < 50% and 29 ± 2% |  | 
29 | CC1=C(C/C=C(\C)CCC[C@H](C)CCC[C@H](C)CCCC(C)C)C(=O)c2ccccc2C1=O [Vitamin K1] |  | 68 ± 15% | 
